Measured values published in patent US8334286B2, “Substituted pyrrolo[1,2-A] pyrazines, compositions containing these, processes of making these, and uses thereof” (Neurotune AG, priority 2008, dated 2012).

Assays:
[1] = tested on: paclitaxel-induced hyperalgesia; experiment: Paclitaxel-induced hyperalgesia in the rat (paw-pressure test); type: in vivo; details: PCT-treated rats, 3 mg/kg i.v., mean ± S.E.M.
Protocol: In all methods, paw mechanical sensitivity was determined using either the paw pressure test or the incapacitance test. The paw pressure test utilizes a Randall & Selitto apparatus, exerting a force that increases at constant rate (32 g/s). The stimulus at which rats withdrawn the paw was evaluated before and at different times after treatment. Results represent the mean of mechanical thresholds expressed as grams. To avoid any possible damage to the animal paw the maximum applied force was fixed at 240 g. Peripheral neuropathy is induced by repeated administration of vincristine, paclitaxel or oxaliplatin to adult male Sprague-Dawley rats (150-200 g, supplier Harlan). The following protocols were used respectively: • Vincristine: the drug was injected by intravenous route at the dose of 150 μg/kg. The treatment was performed every 2 days, for 5 times, until a cumulative dose of 750 μg/kg was reached. Paw pressure test was performed 4 days after the last injection (Marchand F. et al. 2003, Brain Res. 980:117-120). • Paclitaxel: paclitaxel (PCT) neuropathy was induced by intraperitoneal administration of 0.5 mg/kg once a day, on days 1, 3, 5 and 8. Cumulative paclitaxel dose was 2 mg/kg. The pharmacological test was performed 14-18 days after the last paclitaxel injection (Polomano R. C. et al. 2001, Pain 94:293-304). • Oxaliplatin: 2.4 mg/kg were injected by intraperitoneal route for 5 consecutive days followed by 2 days suspension (one cicle). A total of 3 cycles was performed, reaching a cumulative dose of 36 mg/kg (Cavaletti G. 2001, Eur. J. Cancer 37:2457-2463). The test was performed 48 h after the last oxaliplatin injection. 2. Osteoarthritic Pain

MIA-induced hyperalgesia [2] = experiment: MIA-induced hyperalgesia in the rat (paw-pressure test), osteoarthritic pain; type: in vivo; details: MIA-treated rats, mean ± S.E.M.
Protocol: In all methods, paw mechanical sensitivity was determined using either the paw pressure test or the incapacitance test. The paw pressure test utilizes a Randall & Selitto apparatus, exerting a force that increases at constant rate (32 g/s). The stimulus at which rats withdrawn the paw was evaluated before and at different times after treatment. Results represent the mean of mechanical thresholds expressed as grams. To avoid any possible damage to the animal paw the maximum applied force was fixed at 240 g. Osteoarthritis was induced by a single administration of 2 mg (in a volume of 25 μl) of monosodium iodoacetate (MIA) into the left knee joint of anaesthetized rats (male adult Sprague Dawley rats, 150-200 g, supplier Harlan) (Fernihough J. 2004, Pain 112:83-93). This treatment induces the progressive degeneration of the joint and the development of hyperalgesia, mimicking at the histological and behavioral levels what observed in humans. Pharmacological test was performed 7 days after treatment.

MIA-induced hyperalgesia [3] = experiment: MIA-induced hyperalgesia in the rat (incapacitance test), osteoarthritic pain; type: in vivo; details: MIA-treated rats, grams of the right paw, mean ± S.E.M.
Protocol: In all methods, paw mechanical sensitivity was determined using either the paw pressure test or the incapacitance test. […] Osteoarthritis was induced by a single administration of 2 mg (in a volume of 25 μl) of monosodium iodoacetate (MIA) into the left knee joint of anaesthetized rats (male adult Sprague Dawley rats, 150-200 g, supplier Harlan) (Fernihough J. 2004, Pain 112:83-93). This treatment induces the progressive degeneration of the joint and the development of hyperalgesia, mimicking at the histological and behavioral levels what observed in humans. Pharmacological test was performed 7 days after treatment.

[4] = 3 mg/kg i.v., 15 min after treatment
[5] = 3 mg/kg i.v., 30 min after treatment
[6] = 3 mg/kg i.v., 45 min after treatment
[7] = before treatment (basal), group 3 mg/kg i.v.

O=C1CC[C@@H]2CN(S(=O)(=O)c3ccccc3F)CCN12 [Example 3, (R)-(+)2-(2-fluorophenylsulfonyl)hexahydro pyrrolo[1,2-a]pyrazin-6(7H)-one]
melting point: 136 to 137 °C | Mechanical threshold (g), After Treatment 15 min ([1]; 15 min after treatment): 45.6 ± 3.9 g | Mechanical threshold (g), After Treatment 30 min ([1]; 30 min after treatment): 53.3 ± 2.7 g | Mechanical threshold (g), After Treatment 45 min ([1]; 45 min after treatment): 46.2 ± 3.3 g | Mechanical threshold (g), After Treatment 15 min (MIA-induced hyperalgesia [2]; [4]): 61.3 ± 3.0 g | Mechanical threshold (g), After Treatment 30 min (MIA-induced hyperalgesia [2]; [5]): 58.1 ± 3.7 g | Mechanical threshold (g), After Treatment 45 min (MIA-induced hyperalgesia [2]; [6]): 49.2 ± 4.1 g | Mechanical threshold (g), Before Treatment basal (MIA-induced hyperalgesia [2]; [7]): 21.9 ± 1.9 g | Weight borne on right hind paw (MIA-induced hyperalgesia [3]; [4]): 106.9 ± 7.3 g | Weight borne on right hind paw (MIA-induced hyperalgesia [3]; [5]): 112.1 ± 8.5 g | Weight borne on right hind paw (MIA-induced hyperalgesia [3]; [6]): 81.8 ± 6.6 g | Weight borne on right hind paw (MIA-induced hyperalgesia [3]; [7]): 41.8 ± 6.0 g
